Data as given in publication PMC4746629, “Small-molecule inhibition of PTPRZ reduces tumor growth in a rat model of glioblastoma” (Scientific Reports, 2016).
Entries after “also recorded” stand apart in the source; their conditions may differ. Blank lines part the entries; values can stand above or below the molecule they belong to.

Tests used:
PTPRZ-ICR N1758D mutant = PTPRZ-ICR N1758D mutant (Homo sapiens, UniProt P23471, DEL1723-1729/N1758D); experiment: Inhibitor sensitivity of site-directed mutant, pCAP assay; conditions: compounds 10 μM, 20 μM pCAP-GIT1_549–556
Protocol: (G) Inhibitor sensitivity.
(§1) Two hundred microliters of pCAP-peptide substrates (20 μM) in a three-component buffer of pH 7.0 (100 mM acetate, 50 mM Tris, and 50 mM Bis-Tris) containing 5 mM DTT and 0.01% (v/v) Brij-35 were preincubated in a cuvette at room temperature. The reaction was initiated by adding 2 μl of an enzyme solution, and incubated for ~100 s; the amount of the enzyme was adjusted to give a convenient rate. Compounds were then added to the same cuvette at a 1/100 volume. In each experiment, the hydrolysis of the pCAP residue was continuously monitored as an increase in fluorescence at 460 nm (excitation at 334 nm) using a spectrofluorometer (FI-4500, Hitachi). We measured the slope of the linear increase of the fluorescence signal as an indicator of catalytic activity, which was obtained during the 40 s before and after the addition of a compound. The inhibitory effects of each compound were determined by the ratio of the activities, and indicated as the relative value to that of DMSO control.
(§2) respective full-length clones, and the cDNA fragments were fused in frame to the
(§3) coding sequence of glutathione S-transferase (GST) of the Escherichia coli (E. coli)
(§4) expression vector, pGEX-6P (GE Healthcare).
(§5) point mutants, pGEX-6P-PTPRZ-ICR was used as a template with a Quikchange
(§6) multisite-directed mutagenesis kit (Stratagene).

PTPRZ-ICR [1] = target: T1, PTPRZ-ICR (Homo sapiens, UniProt P23471, DEL1723-1729); experiment: Mass spectrometry under non-denaturing conditions (native MS) binding
Protocol: PTPRZ-ICR was mixed with the indicated compounds, and their binding to PTPRZ-ICR was monitored by MS under non-denaturing conditions. […] The concentrations of PTPRZ-ICR proteins used for the assay were estimated to be approximately 0.2 to 0.3 μM by SDS-PAGE followed by CBB staining.
Ten microliter aliquots were mixed with equal volumes of each compound solution, and the samples were immediately analyzed by nanoflow electrospray using in-house made gold-coated glass capillaries (~2 μl sample was loaded for each analysis). […] Spectra were calibrated using 1 mg/ml cesium iodide, and analyzed by Mass Lynx software (Waters).

PTPRZ-ICR [2] = target: T1, PTPRZ-ICR; experiment: In vitro dephosphorylation assay, single concentration of SCB4380 analogues; type: biochemical; design: PTPRZ (ICR, amino acid residues 1698-2315); FLAG (followed by HRV 3C site) (N, cleaved yes); made in house; host or cells: silkworm (Bombyx mori) pupae, BmNPV baculovirus; conditions: compound 10 μM, substrate 20 μM, human PTPRZ-ICR 0.1 nM
Source text: No significant effects were detected with compounds 7 to 10. TEXT PRINTED IN THE PICTURE: (B) 7: (no inhibition) | (B) 8: (no inhibition) | (B) 9: (no inhibition) | (B) 10: (no inhibition)

PTPRZ = PTPRZ (Homo sapiens, UniProt P23471, DEL1723-1729); experiment: PTP selectivity assay with DiFMUP substrate
Protocol: (§7) Human PTPRZ-ICR (0.1 nM) was added to the substrate solution (closed arrowheads), and was followed by the addition of test compounds at the indicated concentrations (open arrowheads). The slope of the fluorescence signal during the 40 s before and after the addition of a compound was measured, and the inhibitory effects of each compound were determined by the ratio of the two. […] The inhibition assay was performed with 20 μM DiFMUP, a non-specific PTP substrate.
(§8) min with 1 M Tris HCl, pH 9.2 (20 µl). The final concentrations of compounds, the
(§9) pCAP substrate, and DMSO were 10 µg/ml, 20 µM, and 1% (v/v), respectively.
(§10) Fluorescence was measured at excitation/emission wavelengths of 380/460 nm
(§11) using an EnVision Multilabel Reader (PerkinElmer). A decrease of more than
(§12) 40% in the signal intensity against the DMSO control was considered to be a
(§13) potential hit, and reproducibility was examined with a freshly prepared stock.
(§14) three-component buffer at pH 7.0 using a 384-well plate. The reaction was […]
(§15) calculated by nonlinear regression (JMP software, SAS Institute). […]
(§16) type was analyzed by a Lineweaver-Burk plot according to Michaelis-Menten […]
(§17) was continuously monitored for ~100 s as an increase in fluorescence at 455 nm […]
(§18) measured the slope of the linear increase of the fluorescence signal as an indicator
(§19) of catalytic activity. IC50 values were determined as above.

[3] = Parallel artificial membrane permeability assay (PAMPA); type: in vitro ADME
human PTPRG = human PTPRG (Homo sapiens, UniProt P23470); experiment: PTP selectivity assay with DiFMUP substrate
Protocol: as §7, §8, §9, §10, §11, §12, §13, §14, §15, §16, §17, §18, §19

C6 cells = experiment: Stability of SCB4380 in C6 cells, time-lapse microscopy after microinjection; type: cell-based, rat
[4] = as above; type: cell-based, rat; conditions: rat; after direct microinjection, time-lapse microscopy; read-out: Average half-life for disappearance of the fluorescent signal in C6 cells
PTPRZ-ICR [5] = target: T1, PTPRZ-ICR; experiment: Hydrolysis of pCAP-GIT1_549–556 by human PTPRZ-ICR, IC50 and kinetic analysis
Protocol: as §7, §8, §9, §10, §11, §12, §13, §14, §15, §16, §17, §18, §19

human PTPRA = human PTPRA (Homo sapiens, UniProt P18433); experiment: PTP selectivity assay with DiFMUP substrate
Protocol: as §7, §8, §9, §10, §11, §12, §13, §14, §15, §16, §17, §18, §19

PTPRZ-ICR [6] = target: T1, PTPRZ-ICR; experiment: Isothermal titration calorimetry
Protocol: Titration isotherm (with error bars). The isotherm was fit to a one-to-one binding model (solid line) using the program SEDPHAT (ref. [48]) with a 1:1 binding model (B). The single dissociation constant and enthalpy change are indicated in the inset. Residuals calculated by subtracting fit values from observed values (C).
The titration sequence included a single 0.4 μl injection followed by 19 injections of 2 μl each at an interval of 120 s between the injections.

PTPRZ-ICR Y1756F mutant = PTPRZ-ICR Y1756F mutant (Homo sapiens, UniProt P23471, DEL1723-1729/Y1756F); experiment: Inhibitor sensitivity of site-directed mutant, pCAP assay; conditions: compounds 10 μM or vanadate 200 μM, 20 μM pCAP-GIT1_549–556
Protocol: (G) Inhibitor sensitivity.
as §1, §2, §3, §4, §5, §6

human PTPRM = human PTPRM (Homo sapiens, UniProt P28827); experiment: PTP selectivity assay with DiFMUP substrate
Protocol: as §7, §8, §9, §10, §11, §12, §13, §14, §15, §16, §17, §18, §19

human PTPN6 = target: T2, human PTPN6 (Homo sapiens, UniProt P29350); experiment: PTP selectivity assay with DiFMUP substrate
T2 sequence (P29350 220-523): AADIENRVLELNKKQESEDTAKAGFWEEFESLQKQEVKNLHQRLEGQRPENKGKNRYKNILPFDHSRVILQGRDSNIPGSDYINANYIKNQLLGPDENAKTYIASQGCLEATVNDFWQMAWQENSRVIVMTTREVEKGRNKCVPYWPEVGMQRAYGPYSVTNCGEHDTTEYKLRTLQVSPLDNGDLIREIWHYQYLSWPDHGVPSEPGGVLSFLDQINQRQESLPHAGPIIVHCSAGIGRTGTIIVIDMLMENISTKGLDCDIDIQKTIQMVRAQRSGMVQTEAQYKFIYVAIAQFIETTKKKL
Protocol: as §7, §9, §10
(§20) using an EnVision Multilabel Reader (PerkinElmer).
(§21) calculated by nonlinear regression (JMP software, SAS Institute).
(§22) type was analyzed by a Lineweaver-Burk plot according to Michaelis-Menten
(§23) BSA, 5 mM DTT and 0.01% Brij-35) with DiFMUP
(§24) (6,8-difluoro-4-methylumbiliferyl phosphate, Molecular probe) as a nonspecific PTP
(§25) substrate. One hundred microliters of 40 µM DiFMUP were preincubated in a
cuvette at room temperature.
(§26) In each experiment, the hydrolysis of DiFMUP
(§27) was continuously monitored for ~100 s as an increase in fluorescence at 455 nm
(§28) (excitation at 358 nm) using a spectrofluorometer (FI-4500, Hitachi). We
as §18, §19

human PTPRS = target: T3, human PTPRS (Homo sapiens, UniProt Q13332); experiment: PTP selectivity assay with DiFMUP substrate
T3 sequence (Q13332 1304-1948): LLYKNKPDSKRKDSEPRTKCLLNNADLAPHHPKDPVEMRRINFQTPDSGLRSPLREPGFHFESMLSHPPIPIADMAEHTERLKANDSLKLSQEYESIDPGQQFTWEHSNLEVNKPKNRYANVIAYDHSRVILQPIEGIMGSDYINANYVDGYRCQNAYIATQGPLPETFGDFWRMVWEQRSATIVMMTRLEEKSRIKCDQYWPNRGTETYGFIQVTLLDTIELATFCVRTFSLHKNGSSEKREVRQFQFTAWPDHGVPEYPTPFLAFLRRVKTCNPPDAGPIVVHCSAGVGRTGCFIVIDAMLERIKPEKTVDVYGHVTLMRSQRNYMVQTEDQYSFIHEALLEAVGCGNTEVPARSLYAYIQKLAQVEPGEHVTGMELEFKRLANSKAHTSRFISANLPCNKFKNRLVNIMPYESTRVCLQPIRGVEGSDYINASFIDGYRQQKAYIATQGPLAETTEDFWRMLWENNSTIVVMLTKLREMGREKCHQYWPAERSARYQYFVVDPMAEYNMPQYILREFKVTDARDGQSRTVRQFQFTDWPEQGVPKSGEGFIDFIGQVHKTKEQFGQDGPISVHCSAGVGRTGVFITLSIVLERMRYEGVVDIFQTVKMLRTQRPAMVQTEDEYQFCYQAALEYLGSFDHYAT
Protocol: as §7, §9, §10, §20, §21, §22, §23, §24, §25
cuvette at room temperature.
as §26, §27, §28, §18, §19

mouse PTPRB = mouse PTPRB (Mus musculus, UniProt B2RU80); experiment: PTP selectivity assay with DiFMUP substrate
Protocol: as §7, §9, §10, §20, §21, §22, §23, §24, §25
cuvette at room temperature.
as §26, §27, §28, §18, §19

human PTPN1 = target: T4, human PTPN1 (Homo sapiens, UniProt P18031); experiment: PTP selectivity assay with DiFMUP substrate
T4 sequence (P18031 1-321): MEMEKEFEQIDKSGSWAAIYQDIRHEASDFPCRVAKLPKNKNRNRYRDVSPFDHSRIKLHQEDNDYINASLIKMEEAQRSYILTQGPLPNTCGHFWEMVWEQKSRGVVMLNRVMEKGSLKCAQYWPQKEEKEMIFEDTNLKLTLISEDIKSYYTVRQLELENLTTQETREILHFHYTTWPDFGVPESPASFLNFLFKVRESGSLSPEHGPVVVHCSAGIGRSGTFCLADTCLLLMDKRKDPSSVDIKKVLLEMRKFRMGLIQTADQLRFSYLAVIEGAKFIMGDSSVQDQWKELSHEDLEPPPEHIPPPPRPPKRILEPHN
Protocol: as §7, §9, §10, §20, §21, §22, §23, §24, §25
cuvette at room temperature.
as §26, §27, §28, §18, §19

C6 glioblastoma cells = experiment: Cell proliferation assay; type: cell-based, rat; conditions: parent C6 cells, liposome delivery

Sequence of PTPRZ-ICR N1758D mutant (P23471 1698-2308 isoform P23471-2 N1751D limits assumed): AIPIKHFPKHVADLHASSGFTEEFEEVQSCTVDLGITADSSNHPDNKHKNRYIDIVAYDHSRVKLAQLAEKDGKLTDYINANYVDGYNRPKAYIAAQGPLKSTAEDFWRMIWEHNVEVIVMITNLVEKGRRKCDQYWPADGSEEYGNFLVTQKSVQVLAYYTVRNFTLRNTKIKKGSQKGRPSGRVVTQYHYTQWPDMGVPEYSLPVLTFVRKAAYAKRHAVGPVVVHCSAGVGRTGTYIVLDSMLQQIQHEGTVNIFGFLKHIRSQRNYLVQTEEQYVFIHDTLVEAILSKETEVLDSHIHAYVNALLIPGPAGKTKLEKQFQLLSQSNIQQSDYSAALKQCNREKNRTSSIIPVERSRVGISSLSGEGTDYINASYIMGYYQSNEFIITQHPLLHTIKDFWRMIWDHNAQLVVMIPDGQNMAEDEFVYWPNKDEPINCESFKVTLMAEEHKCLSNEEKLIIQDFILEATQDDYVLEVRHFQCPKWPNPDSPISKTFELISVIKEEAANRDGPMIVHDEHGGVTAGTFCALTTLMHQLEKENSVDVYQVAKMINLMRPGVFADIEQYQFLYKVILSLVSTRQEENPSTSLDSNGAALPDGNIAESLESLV
T1 sequence (P23471 1698-2308 isoform P23471-2 limits assumed, stated change not applied): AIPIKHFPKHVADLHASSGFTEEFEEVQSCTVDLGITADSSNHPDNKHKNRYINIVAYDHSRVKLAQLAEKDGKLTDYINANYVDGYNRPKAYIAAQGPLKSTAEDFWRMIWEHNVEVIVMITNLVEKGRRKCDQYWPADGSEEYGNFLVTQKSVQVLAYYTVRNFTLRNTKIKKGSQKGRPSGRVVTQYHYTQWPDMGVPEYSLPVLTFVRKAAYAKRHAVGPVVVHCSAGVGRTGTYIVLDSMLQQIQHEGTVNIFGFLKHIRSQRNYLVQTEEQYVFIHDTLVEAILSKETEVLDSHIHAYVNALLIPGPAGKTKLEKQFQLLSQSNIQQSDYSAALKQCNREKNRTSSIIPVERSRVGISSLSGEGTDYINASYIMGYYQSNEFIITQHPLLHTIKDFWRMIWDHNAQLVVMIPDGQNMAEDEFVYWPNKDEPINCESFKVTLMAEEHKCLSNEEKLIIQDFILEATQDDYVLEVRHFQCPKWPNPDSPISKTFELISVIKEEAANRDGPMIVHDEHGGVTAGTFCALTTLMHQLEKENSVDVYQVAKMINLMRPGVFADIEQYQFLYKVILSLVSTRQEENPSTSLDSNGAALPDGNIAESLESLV
Sequence of PTPRZ-ICR Y1756F mutant (P23471 1698-2308 isoform P23471-2 Y1749F limits assumed): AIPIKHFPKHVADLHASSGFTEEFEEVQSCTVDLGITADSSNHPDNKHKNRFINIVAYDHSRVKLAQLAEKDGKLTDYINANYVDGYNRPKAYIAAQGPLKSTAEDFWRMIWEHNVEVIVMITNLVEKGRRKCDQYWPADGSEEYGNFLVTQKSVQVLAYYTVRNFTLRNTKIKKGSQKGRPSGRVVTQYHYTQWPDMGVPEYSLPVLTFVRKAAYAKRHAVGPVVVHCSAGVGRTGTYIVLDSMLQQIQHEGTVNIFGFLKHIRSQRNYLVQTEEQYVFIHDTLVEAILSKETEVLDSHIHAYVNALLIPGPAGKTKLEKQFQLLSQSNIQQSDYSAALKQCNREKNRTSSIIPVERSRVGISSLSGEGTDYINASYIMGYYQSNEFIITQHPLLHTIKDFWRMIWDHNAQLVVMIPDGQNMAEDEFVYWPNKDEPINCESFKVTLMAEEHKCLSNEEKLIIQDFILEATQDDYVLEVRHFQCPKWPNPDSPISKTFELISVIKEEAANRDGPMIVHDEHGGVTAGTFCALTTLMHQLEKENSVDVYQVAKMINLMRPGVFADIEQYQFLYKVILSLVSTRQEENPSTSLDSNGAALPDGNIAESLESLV
Sequence of human PTPRM (P28827 765-1452): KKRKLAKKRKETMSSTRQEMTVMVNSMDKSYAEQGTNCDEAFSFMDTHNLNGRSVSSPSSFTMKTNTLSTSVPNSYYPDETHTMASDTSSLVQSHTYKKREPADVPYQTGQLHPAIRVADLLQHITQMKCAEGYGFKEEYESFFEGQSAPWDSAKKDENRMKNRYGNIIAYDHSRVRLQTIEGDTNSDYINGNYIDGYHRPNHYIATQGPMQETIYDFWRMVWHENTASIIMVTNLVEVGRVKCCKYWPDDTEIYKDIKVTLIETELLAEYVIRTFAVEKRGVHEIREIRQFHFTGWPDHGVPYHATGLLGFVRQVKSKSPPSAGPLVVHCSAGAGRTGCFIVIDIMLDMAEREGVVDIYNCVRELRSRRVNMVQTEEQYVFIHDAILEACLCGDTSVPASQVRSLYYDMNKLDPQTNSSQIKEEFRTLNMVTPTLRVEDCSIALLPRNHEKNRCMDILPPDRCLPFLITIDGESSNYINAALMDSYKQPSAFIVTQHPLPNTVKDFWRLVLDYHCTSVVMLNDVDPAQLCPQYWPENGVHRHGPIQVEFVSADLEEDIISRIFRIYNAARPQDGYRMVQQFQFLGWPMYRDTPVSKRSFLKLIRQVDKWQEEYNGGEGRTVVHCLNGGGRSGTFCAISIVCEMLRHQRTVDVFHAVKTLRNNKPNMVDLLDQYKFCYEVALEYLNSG
Sequence of mouse PTPRB (B2RU80 1644-1997 limits assumed): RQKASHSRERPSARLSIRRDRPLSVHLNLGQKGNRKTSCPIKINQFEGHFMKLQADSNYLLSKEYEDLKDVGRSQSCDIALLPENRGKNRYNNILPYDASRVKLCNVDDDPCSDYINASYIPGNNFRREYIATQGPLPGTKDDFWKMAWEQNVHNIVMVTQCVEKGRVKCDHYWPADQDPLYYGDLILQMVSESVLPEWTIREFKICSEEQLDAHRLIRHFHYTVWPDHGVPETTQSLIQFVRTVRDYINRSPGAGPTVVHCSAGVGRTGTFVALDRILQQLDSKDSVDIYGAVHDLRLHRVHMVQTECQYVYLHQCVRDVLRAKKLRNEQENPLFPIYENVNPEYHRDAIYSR
Sequence of PTPRZ (P23471 1698-2308 isoform P23471-2 limits assumed, stated change not applied): as the sequence (P23471 1698-2308 isoform P23471-2 limits assumed, stated change not applied) above
Sequence of human PTPRG (P23470 790-1445): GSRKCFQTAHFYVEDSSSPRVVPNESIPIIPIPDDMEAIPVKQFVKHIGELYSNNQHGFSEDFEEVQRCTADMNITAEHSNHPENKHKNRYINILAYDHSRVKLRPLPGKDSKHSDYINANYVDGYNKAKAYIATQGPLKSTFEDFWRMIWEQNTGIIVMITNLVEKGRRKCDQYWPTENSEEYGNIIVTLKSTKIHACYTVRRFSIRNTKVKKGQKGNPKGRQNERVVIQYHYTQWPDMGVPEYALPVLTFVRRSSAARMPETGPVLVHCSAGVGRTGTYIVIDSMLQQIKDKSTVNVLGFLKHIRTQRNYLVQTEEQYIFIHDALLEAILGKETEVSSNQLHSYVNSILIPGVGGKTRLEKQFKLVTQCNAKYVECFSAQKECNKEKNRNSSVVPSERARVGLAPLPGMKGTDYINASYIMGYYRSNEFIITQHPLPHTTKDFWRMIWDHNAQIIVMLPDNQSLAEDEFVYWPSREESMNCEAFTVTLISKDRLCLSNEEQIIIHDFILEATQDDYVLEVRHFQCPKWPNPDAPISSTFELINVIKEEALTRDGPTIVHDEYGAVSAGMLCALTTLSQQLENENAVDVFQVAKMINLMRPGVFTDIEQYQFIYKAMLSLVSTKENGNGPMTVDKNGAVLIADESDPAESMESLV

- Inhibitor sensitivity of N1758D mutant versus wild-type enzyme (PTPRZ-ICR N1758D mutant): no changes in sensitivity
- Binding to PTPRZ-ICR by native MS (PTPRZ-ICR [1]): no binding activity
SMILES: O=S(=O)([O-])c1ccc2c(N=Nc3ccc(S(=O)(=O)[O-])c4ccccc34)c(O)ccc2c1.[Na+].[Na+] [compound 3, disodium 6-hydroxy-5-[(4-sulfonato-1-naphthyl)diazenyl]-2-naphthalene sulfonate]

- Inhibitory effect on hydrolysis of pCAP-GIT1_549–556 (residual enzymatic activity relative to DMSO control) (PTPRZ-ICR [2]): no inhibition
SMILES: O=S(=O)(O)c1cccc2ccccc12 [compound 10, sodium 1-naphthalenesulfonate]

- IC50 (PTPRZ): 0.4 µM
- Membrane permeability [3]: deficient and low
- IC50 (human PTPRG): 0.4 µM
- Stability in living cells (C6 cells): substantial instability
- half-life [4]: ~50 min
- IC50 (PTPRZ-ICR [5]): 0.4 µM
- Inhibition type by Lineweaver-Burk plot analysis (PTPRZ-ICR [5]; human PTPRZ-ICR, pCAP-peptide substrate): competitive
- IC50 (human PTPRA): 75.7 µM
- Kd (PTPRZ-ICR [6]): 1.23 µM
- ΔH (enthalpy change, ITC) (PTPRZ-ICR [6]; 298.15 K, pH 7.5): -58.4 kJ/mol
- Inhibitor sensitivity of N1758D mutant versus wild-type enzyme (PTPRZ-ICR N1758D mutant): resistant to inhibition
- IC50 (human PTPRM): 60.7 µM
- IC50 (human PTPN6): 24.6 µM
- IC50 (human PTPRS): 14.8 µM
- IC50 (mouse PTPRB): 73.8 µM
- IC50 (human PTPN1): 19.5 µM
SMILES: O=S(=O)([O-])c1ccc2c(N=Nc3ccc(S(=O)(=O)[O-])c4ccccc34)c(O)c(S(=O)(=O)[O-])cc2c1.[Na+].[Na+].[Na+] [SCB4380, trisodium 3-hydroxy-4-[(4-sulfonato-1-naphthyl)diazenyl]-2,7-naphthalenedisulfonate]
- Inhibitor sensitivity of Y1756F mutant versus wild-type enzyme (PTPRZ-ICR Y1756F mutant): impaired the inhibition by SCB4380 markedly
- Binding to PTPRZ-ICR by native MS (PTPRZ-ICR [1]): bound to Z-ICR in a one-to-one stoichiometry

SMILES: [O]=[V]([O-])([O-])[O-] [vanadate, reference compound]
- Inhibitor sensitivity of Y1756F mutant versus wild-type enzyme (PTPRZ-ICR Y1756F mutant): not by vanadate

SMILES: O=[N+]([O-])c1ccc(N=Nc2c(O)c(S(=O)(=O)[O-])cc3cc(S(=O)(=O)[O-])ccc23)cc1.[Na+].[Na+] [compound 6, sodium 3-hydroxy-4-[(4-nitrophenyl)diazenyl]-2,7-naphthalenedisulfonate]
- Inhibitory effect on hydrolysis of pCAP-GIT1_549–556 (residual enzymatic activity relative to DMSO control) (PTPRZ-ICR [2]): markedly abolished inhibitory activity; also recorded: weakly inhibited

- Inhibitory effect on hydrolysis of pCAP-GIT1_549–556 (residual enzymatic activity relative to DMSO control) (PTPRZ-ICR [2]): almost no inhibition
- Binding to PTPRZ-ICR by native MS (PTPRZ-ICR [1]): no binding activity
SMILES: O=S(=O)([O-])c1cc(S(=O)(=O)[O-])c2c(N=Nc3ccc(S(=O)(=O)[O-])c4ccccc34)c(O)ccc2c1.[Na+].[Na+].[Na+] [compound 2, trisodium 7-hydroxy-8-[(4-sulfonato-1-naphthyl)diazenyl]-1,3-naphthalenedisulfonate]
- Proliferation of C6 glioblastoma cells (increase in cell number in 24 h) (C6 glioblastoma cells): did not show suppressive effects

- Inhibitor sensitivity of N1758D mutant versus wild-type enzyme (PTPRZ-ICR N1758D mutant): no changes in sensitivity
SMILES: O=S(=O)([O-])c1ccc(N=Nc2c(O)ccc3ccccc23)c2ccccc12.[Na+] [compound 4, sodium 4-(2-hydroxy-1-naphthalenylazo)-1-naphthalenesulfonate]

- Inhibitory effect on hydrolysis of pCAP-GIT1_549–556 (residual enzymatic activity relative to DMSO control) (PTPRZ-ICR [2]): no inhibition
SMILES: O=S(=O)([O-])c1ccc2cc(O)c(S(=O)(=O)[O-])cc2c1.[Na+].[Na+] [compound 8, disodium 3-hydroxy-2,7-naphthalenedisulfonate]

- Inhibitory effect on hydrolysis of pCAP-GIT1_549–556 (residual enzymatic activity relative to DMSO control) (PTPRZ-ICR [2]): no inhibition
SMILES: Nc1ccc(S(=O)(=O)O)c2ccccc12 [compound 9, 4-amino-1-naphthalenesulfonic acid]

- Inhibitory effect on hydrolysis of pCAP-GIT1_549–556 (residual enzymatic activity relative to DMSO control) (PTPRZ-ICR [2]): no inhibition
SMILES: O=Nc1c(O)c(S(=O)(=O)O)cc2cc(S(=O)(=O)O)ccc12 [compound 7, disodium 1-nitroso-2-naphthol-3,6-disulfonate monohydrate]

- Inhibitory effect on hydrolysis of pCAP-GIT1_549–556 (residual enzymatic activity relative to DMSO control) (PTPRZ-ICR [2]): markedly abolished inhibitory activity
- Inhibitory effect on hydrolysis of pCAP-GIT1_549–556 (residual enzymatic activity relative to DMSO control) (PTPRZ-ICR [2]; listed as Compound 5): weakly inhibited
- Inhibitor sensitivity of N1758D mutant versus wild-type enzyme (PTPRZ-ICR N1758D mutant): resistant to inhibition
SMILES: O=S(=O)([O-])c1ccc2c(N=Nc3cccc4ccccc34)c(O)c(S(=O)(=O)[O-])cc2c1.[Na+].[Na+] [compound 5, disodium 3-hydroxy-4-(1-naphthyldiazenyl)-2,7-naphthalenedisulfonate]
